Series [1] is described as follows: Compound was evaluated for the […] glutamate decarboxylase at 2.5 mM dose; No significant activation.
A short description of series [2]: Half life at a concentration 1 mM. The class given is ADME.
Series [3] can be described thus: Compound was evaluated for its ability to increase the […] glutamate decarboxylase at 2.5 mM dose. Further details: scale not given: the % may be the effect or the level left.

Active and inactive are the calls of the source. No cut-off for these calls is given here.

As to `CC/C=C\C(CN)CC(=O)O` (configuration not stated), the outcome in series [1] was inactive.
In the case of `C=CC(N)CCC(=O)O` (configuration not stated) [VIGABATRIN], the half-life at 1000 µM in series [2] is 0.3 min.
`C/C=C/C(CN)CC(=O)O` (configuration not stated): in series [1], the result was inactive.
In series [2], `C=CC(CN)CC(=O)O` (configuration not stated) came in with a half-life at 1000 µM of 39 min. In addition, in series [1], the result was inactive.
With `CC/C=C/C(CN)CC(=O)O` (configuration not stated), the result in series [1] was inactive.
With `C/C=C\C(CN)CC(=O)O` (configuration not stated), in series [1], the outcome was inactive.
The same measure, in the same setting: the same measure for `CC(C)/C=C\C(CN)CC(=O)O` (configuration not stated): “inactive”; for `C/C=C(\C)C(CN)CC(=O)O` (configuration not stated): “inactive”.
In the case of `CC(C)CC(CN)CC(=O)O` (configuration not stated), in series [3], the Activity is 50%.
With `CCC/C=C\C(CN)CC(=O)O` (configuration not stated), the outcome in series [1] was inactive.
Regarding `CC(C)=CC(CN)CC(=O)O` (configuration not stated), in series [1], the outcome was inactive.

The values are drawn from ChEMBL document CHEMBL1130587, “General synthesis of 3-substituted alkenyl GABA as potential anticonvulsants” (Bioorg Med Chem Lett, 1998).
